Key:
Assay in all cases: KINOMEscan competition binding
Details in all cases: compound 10.0 µM
NUAK1 (human) = NUAK1 (human) (UniProt O60285)
CHUK (human) = CHUK (human) (UniProt O15111)
PRKD3 (human) = PRKD3 (human) (UniProt O94806)
MAP4K2 (human) = MAP4K2 (human) (UniProt Q12851)
TEC (human) = TEC (human) (UniProt P42680)
TXK (human) = TXK (human) (UniProt P42681)
BRSK2 (human) = BRSK2 (human) (UniProt Q8IWQ3)
CAMK2G (human) = CAMK2G (human) (UniProt Q13555)
[1] = system: EGFR (human), P00533 [G719C]
STK17B (human) = STK17B (human) (UniProt O94768)
PRKACB (human) = PRKACB (human) (UniProt P22694)
[2] = system: FGFR3 (human), P22607 [G697C]
EPHA4 (human) = EPHA4 (human) (UniProt P54764)
DCLK3 (human) = DCLK3 (human) (UniProt Q9C098)
AURKC (human) = AURKC (human) (UniProt Q9UQB9)
MYO3B (human) = MYO3B (human) (UniProt Q8WXR4)
NLK (human) = NLK (human) (UniProt Q9UBE8)
CDK18 (human) = CDK18 (human) (UniProt Q07002)
CDC42BPG (human) = CDC42BPG (human) (UniProt Q6DT37)
CDC2L2 (human) = CDC2L2 (human) (UniProt Q9UQ88)
CSK (human) = CSK (human) (UniProt P41240)
ACVRL1 (human) = ACVRL1 (human) (UniProt P37023)
STK39 (human) = STK39 (human) (UniProt Q9UEW8)
AKT3 (human) = AKT3 (human) (UniProt Q9Y243)
PIP4K2B (human) = PIP4K2B (human) (UniProt P78356)
MAP3K3 (human) = MAP3K3 (human) (UniProt Q99759)
BLK (human) = BLK (human) (UniProt P51451)
CAMK1G (human) = CAMK1G (human) (UniProt Q96NX5)
IKBKB (human) = IKBKB (human) (UniProt O14920)
DAPK2 (human) = DAPK2 (human) (UniProt Q9UIK4)
NEK7 (human) = NEK7 (human) (UniProt Q8TDX7)
[3] = molecular target: JAK1 JH2 pseudokinase (human) (UniProt P23458)
[4] = system: FLT3 (human), P36888 [D835Y]
MAPK13 (human) = MAPK13 (human) (UniProt O15264)
RPS6KA2 KD2 (human) = RPS6KA2 KD2 (human) (UniProt Q15349)
MAPK1 (human) = MAPK1 (human) (UniProt P28482)
LYN (human) = LYN (human) (UniProt P07948)
EPHB1 (human) = EPHB1 (human) (UniProt P54762)
STK16 (human) = STK16 (human) (UniProt O75716)
IKBKE (human) = IKBKE (human) (UniProt Q14164)

Sequence of DCLK3 (human) (Q9C098 whole entry, looked up): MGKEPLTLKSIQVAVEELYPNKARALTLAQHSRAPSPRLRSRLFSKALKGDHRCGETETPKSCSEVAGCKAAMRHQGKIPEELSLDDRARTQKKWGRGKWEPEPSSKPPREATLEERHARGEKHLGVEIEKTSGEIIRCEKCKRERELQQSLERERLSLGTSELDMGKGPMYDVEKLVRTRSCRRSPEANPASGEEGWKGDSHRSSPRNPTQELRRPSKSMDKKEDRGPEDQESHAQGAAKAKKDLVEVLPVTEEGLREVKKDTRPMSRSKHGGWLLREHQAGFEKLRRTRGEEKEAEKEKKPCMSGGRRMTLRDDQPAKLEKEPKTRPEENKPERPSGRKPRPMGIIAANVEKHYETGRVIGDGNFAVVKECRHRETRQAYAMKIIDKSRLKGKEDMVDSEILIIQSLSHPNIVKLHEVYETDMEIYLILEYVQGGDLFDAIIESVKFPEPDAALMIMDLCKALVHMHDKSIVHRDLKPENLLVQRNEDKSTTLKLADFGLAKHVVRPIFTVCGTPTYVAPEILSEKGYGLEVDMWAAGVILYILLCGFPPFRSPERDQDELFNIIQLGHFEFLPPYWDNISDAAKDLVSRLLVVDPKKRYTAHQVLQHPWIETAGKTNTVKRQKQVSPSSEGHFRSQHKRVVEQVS
Sequence of MAPK13 (human) (O15264 whole entry, looked up): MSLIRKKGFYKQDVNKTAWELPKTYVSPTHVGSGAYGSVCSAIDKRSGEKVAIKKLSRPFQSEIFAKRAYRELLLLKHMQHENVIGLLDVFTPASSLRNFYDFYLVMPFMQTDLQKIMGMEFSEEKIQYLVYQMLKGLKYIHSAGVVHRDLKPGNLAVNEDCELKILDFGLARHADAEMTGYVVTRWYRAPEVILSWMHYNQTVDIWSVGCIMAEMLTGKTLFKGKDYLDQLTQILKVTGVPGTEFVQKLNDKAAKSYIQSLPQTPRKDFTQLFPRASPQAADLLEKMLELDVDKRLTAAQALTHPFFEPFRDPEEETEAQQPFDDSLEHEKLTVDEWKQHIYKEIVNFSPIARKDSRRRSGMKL
Sequence of IKBKB (human) (O14920 whole entry, looked up): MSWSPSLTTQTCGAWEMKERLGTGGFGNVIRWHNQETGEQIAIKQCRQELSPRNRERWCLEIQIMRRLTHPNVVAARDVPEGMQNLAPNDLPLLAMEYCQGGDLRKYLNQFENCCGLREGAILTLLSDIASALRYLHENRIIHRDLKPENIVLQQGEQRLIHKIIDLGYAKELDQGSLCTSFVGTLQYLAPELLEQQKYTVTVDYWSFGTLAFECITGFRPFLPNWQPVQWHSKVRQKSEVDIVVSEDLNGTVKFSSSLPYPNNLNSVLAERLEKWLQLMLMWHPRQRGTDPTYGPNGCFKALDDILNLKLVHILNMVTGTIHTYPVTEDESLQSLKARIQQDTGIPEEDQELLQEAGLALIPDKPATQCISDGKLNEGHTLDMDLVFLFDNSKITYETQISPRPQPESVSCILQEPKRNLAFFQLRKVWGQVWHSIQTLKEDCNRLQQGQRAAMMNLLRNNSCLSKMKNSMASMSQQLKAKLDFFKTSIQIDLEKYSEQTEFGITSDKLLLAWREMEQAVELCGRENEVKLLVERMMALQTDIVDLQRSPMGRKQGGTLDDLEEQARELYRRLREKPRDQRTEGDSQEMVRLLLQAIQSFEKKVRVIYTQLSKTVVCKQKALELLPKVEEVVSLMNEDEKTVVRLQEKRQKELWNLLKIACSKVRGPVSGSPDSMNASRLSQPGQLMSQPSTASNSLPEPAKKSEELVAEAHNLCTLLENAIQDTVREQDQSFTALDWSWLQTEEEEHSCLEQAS
Sequence of NEK7 (human) (Q8TDX7 whole entry, looked up): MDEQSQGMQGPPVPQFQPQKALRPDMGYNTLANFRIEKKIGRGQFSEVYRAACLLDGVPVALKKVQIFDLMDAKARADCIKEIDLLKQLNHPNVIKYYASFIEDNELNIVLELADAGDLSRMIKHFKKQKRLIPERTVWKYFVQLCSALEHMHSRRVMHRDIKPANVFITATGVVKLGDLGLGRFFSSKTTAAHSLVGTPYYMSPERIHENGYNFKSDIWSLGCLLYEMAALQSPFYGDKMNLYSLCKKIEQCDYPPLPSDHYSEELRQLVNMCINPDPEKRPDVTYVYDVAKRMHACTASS
Sequence of MYO3B (human) (Q8WXR4 whole entry, looked up): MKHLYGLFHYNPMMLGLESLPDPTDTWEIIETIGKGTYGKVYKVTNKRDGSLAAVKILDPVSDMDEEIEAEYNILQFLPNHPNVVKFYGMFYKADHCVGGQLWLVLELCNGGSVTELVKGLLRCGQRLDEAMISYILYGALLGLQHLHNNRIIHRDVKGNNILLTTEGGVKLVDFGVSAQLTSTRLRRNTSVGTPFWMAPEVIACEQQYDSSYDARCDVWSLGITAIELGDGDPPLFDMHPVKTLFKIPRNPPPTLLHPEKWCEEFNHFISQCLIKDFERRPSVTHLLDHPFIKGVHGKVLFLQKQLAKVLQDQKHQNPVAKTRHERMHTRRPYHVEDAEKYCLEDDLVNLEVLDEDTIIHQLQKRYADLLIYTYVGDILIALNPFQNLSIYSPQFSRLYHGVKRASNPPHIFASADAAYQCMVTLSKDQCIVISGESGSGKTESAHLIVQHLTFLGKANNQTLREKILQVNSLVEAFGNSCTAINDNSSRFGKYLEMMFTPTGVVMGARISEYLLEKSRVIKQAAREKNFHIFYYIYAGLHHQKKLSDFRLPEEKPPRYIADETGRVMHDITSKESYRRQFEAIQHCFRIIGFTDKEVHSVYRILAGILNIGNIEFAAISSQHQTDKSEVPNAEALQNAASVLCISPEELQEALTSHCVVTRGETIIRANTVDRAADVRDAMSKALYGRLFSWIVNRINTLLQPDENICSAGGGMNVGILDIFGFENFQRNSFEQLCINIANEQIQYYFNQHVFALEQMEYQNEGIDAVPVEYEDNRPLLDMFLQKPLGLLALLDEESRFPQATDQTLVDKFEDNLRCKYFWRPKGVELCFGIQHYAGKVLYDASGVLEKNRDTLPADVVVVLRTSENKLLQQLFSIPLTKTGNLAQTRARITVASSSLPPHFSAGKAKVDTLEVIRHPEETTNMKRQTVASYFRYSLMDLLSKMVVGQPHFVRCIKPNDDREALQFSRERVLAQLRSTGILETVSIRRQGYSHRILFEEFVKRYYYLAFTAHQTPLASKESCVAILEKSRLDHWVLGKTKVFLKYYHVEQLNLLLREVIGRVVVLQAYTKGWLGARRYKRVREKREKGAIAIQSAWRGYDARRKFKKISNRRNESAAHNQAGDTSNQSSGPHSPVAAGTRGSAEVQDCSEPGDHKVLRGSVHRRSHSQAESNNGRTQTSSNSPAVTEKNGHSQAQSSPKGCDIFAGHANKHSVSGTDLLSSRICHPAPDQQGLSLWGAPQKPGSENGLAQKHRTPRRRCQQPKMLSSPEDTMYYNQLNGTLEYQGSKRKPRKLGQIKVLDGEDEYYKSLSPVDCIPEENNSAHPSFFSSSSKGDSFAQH
Sequence of BLK (human) (P51451 whole entry, looked up): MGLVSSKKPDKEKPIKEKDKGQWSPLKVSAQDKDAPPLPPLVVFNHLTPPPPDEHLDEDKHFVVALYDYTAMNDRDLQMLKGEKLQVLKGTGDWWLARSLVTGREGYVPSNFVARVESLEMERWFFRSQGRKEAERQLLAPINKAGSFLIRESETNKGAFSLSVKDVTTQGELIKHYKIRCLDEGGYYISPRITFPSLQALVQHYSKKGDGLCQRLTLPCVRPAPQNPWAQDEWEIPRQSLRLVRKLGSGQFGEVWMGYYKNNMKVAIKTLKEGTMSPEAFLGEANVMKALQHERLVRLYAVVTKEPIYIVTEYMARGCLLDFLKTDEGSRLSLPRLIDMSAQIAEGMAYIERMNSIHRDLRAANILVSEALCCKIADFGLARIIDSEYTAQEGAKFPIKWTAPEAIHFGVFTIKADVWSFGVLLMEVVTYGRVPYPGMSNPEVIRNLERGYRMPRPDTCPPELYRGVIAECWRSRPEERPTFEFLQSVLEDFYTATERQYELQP
Sequence of CDK18 (human) (Q07002 whole entry, looked up): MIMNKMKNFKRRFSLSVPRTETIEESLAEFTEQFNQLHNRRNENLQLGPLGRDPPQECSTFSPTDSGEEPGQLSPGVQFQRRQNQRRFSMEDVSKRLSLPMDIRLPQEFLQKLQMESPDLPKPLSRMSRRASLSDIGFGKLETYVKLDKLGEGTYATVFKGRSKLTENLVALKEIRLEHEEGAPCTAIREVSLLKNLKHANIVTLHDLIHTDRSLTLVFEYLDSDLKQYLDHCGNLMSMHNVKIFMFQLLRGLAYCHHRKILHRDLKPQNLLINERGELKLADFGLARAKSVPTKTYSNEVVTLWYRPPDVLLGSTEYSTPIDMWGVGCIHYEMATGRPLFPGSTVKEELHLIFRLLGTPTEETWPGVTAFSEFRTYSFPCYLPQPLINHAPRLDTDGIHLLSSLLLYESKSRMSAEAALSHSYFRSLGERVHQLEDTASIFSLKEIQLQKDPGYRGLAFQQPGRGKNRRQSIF
Sequence of NUAK1 (human) (O60285 whole entry, looked up): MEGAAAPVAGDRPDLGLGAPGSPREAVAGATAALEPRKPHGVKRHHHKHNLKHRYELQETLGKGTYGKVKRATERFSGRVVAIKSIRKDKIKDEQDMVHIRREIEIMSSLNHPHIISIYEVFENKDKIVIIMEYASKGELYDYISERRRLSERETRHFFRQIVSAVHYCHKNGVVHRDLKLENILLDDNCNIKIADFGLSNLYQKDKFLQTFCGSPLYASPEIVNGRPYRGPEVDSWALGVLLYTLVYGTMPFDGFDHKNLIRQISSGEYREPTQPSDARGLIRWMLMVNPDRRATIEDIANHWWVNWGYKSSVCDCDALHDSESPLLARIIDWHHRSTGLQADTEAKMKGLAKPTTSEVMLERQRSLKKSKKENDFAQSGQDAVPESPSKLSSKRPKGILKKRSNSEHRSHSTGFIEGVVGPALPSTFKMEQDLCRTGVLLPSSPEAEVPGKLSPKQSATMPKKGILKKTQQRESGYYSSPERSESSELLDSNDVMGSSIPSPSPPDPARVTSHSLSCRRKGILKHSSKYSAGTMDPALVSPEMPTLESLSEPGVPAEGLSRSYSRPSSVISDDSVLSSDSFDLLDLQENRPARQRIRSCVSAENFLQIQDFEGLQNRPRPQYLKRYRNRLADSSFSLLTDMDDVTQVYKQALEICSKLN

**Q.** For CCN1CCN(Cc2ccc(NC(=O)c3ccc(C)c(/C=C/c4cnc5[nH]ccc5c4OC)c3)cc2C(F)(F)F)CC1, which kinase still bound, per cent of control (NUAK1 (human)) is on record?
**A.** Its kinase still bound, per cent of control is 100%.

**Q.** And the kinase still bound, per cent of control (CHUK (human))?
**A.** Its kinase still bound, per cent of control is 0%.

**Q.** And the kinase still bound, per cent of control (PRKD3 (human))?
**A.** The kinase still bound, per cent of control was 52%.

**Q.** What about the kinase still bound, per cent of control (MAP4K2 (human)) of the same compound?
**A.** Its kinase still bound, per cent of control is 0%.

**Q.** What about the kinase still bound, per cent of control (TEC (human)) of the same compound?
**A.** The kinase still bound, per cent of control was 0.5%.

**Q.** And the kinase still bound, per cent of control (TXK (human))?
**A.** Its kinase still bound, per cent of control is 0.7%.

**Q.** And the kinase still bound, per cent of control (BRSK2 (human))?
**A.** Its kinase still bound, per cent of control is 100%.

**Q.** What about the kinase still bound, per cent of control (CAMK2G (human)) of the same compound?
**A.** The kinase still bound, per cent of control was 100%.

**Q.** And the kinase still bound, per cent of control [1]?
**A.** Its kinase still bound, per cent of control is 0.05%.

**Q.** What about the kinase still bound, per cent of control (STK17B (human)) of the same compound?
**A.** Its kinase still bound, per cent of control is 1%.

**Q.** What about the kinase still bound, per cent of control (PRKACB (human)) of the same compound?
**A.** Its kinase still bound, per cent of control is 100%.

**Q.** And the kinase still bound, per cent of control [2]?
**A.** The kinase still bound, per cent of control was 2.5%.

**Q.** What about the kinase still bound, per cent of control (EPHA4 (human)) of the same compound?
**A.** Its kinase still bound, per cent of control is 0%.

**Q.** And the kinase still bound, per cent of control (DCLK3 (human))?
**A.** Its kinase still bound, per cent of control is 3.2%.

**Q.** And the kinase still bound, per cent of control (AURKC (human))?
**A.** The kinase still bound, per cent of control was 1.5%.

**Q.** And the kinase still bound, per cent of control (MYO3B (human))?
**A.** Its kinase still bound, per cent of control is 40%.

**Q.** And the kinase still bound, per cent of control (NLK (human))?
**A.** Its kinase still bound, per cent of control is 17%.

**Q.** What about the kinase still bound, per cent of control (CDK18 (human)) of the same compound?
**A.** Its kinase still bound, per cent of control is 100%.

**Q.** What about the kinase still bound, per cent of control (CDC42BPG (human)) of the same compound?
**A.** Its kinase still bound, per cent of control is 16%.

**Q.** And the kinase still bound, per cent of control (CDC2L2 (human))?
**A.** The kinase still bound, per cent of control was 5.4%.

**Q.** And the kinase still bound, per cent of control (CSK (human))?
**A.** Its kinase still bound, per cent of control is 0.75%.

**Q.** And the kinase still bound, per cent of control (ACVRL1 (human))?
**A.** The kinase still bound, per cent of control was 100%.

**Q.** And the kinase still bound, per cent of control (STK39 (human))?
**A.** Its kinase still bound, per cent of control is 100%.

**Q.** And the kinase still bound, per cent of control (AKT3 (human))?
**A.** Its kinase still bound, per cent of control is 100%.

**Q.** What about the kinase still bound, per cent of control (PIP4K2B (human)) of the same compound?
**A.** Its kinase still bound, per cent of control is 0.4%.

**Q.** What about the kinase still bound, per cent of control (MAP3K3 (human)) of the same compound?
**A.** The kinase still bound, per cent of control was 1.4%.

**Q.** And the kinase still bound, per cent of control (BLK (human))?
**A.** Its kinase still bound, per cent of control is 0.15%.

**Q.** What about the kinase still bound, per cent of control (CAMK1G (human)) of the same compound?
**A.** Its kinase still bound, per cent of control is 100%.

**Q.** And the kinase still bound, per cent of control (IKBKB (human))?
**A.** Its kinase still bound, per cent of control is 0.15%.

**Q.** And the kinase still bound, per cent of control (DAPK2 (human))?
**A.** Its kinase still bound, per cent of control is 100%.

**Q.** What about the kinase still bound, per cent of control (NEK7 (human)) of the same compound?
**A.** Its kinase still bound, per cent of control is 64%.

**Q.** What about the kinase still bound, per cent of control [3] of the same compound?
**A.** Its kinase still bound, per cent of control is 41%.

**Q.** And the kinase still bound, per cent of control [4]?
**A.** Its kinase still bound, per cent of control is 2.8%.

**Q.** What about the kinase still bound, per cent of control (MAPK13 (human)) of the same compound?
**A.** The kinase still bound, per cent of control was 22%.

**Q.** And the kinase still bound, per cent of control (RPS6KA2 KD2 (human))?
**A.** Its kinase still bound, per cent of control is 42%.

**Q.** What about the kinase still bound, per cent of control (MAPK1 (human)) of the same compound?
**A.** Its kinase still bound, per cent of control is 100%.

**Q.** What about the kinase still bound, per cent of control (LYN (human)) of the same compound?
**A.** Its kinase still bound, per cent of control is 0%.

**Q.** What about the kinase still bound, per cent of control (EPHB1 (human)) of the same compound?
**A.** The kinase still bound, per cent of control was 0.45%.

**Q.** What about the kinase still bound, per cent of control (STK16 (human)) of the same compound?
**A.** The kinase still bound, per cent of control was 54%.

**Q.** And the kinase still bound, per cent of control (IKBKE (human))?
**A.** The kinase still bound, per cent of control was 94%.

Source: the kinase profiling compilation of Christmann-Franck et al. (2016)
